One data set deals with group B streptococci. It is filed as cell-based.
Another data set concerns H. influenzae (Hi). In words: microbe, parasite or virus in culture. It is filed as cell-based. The settings on record: Haemophilus influenzae.
In the next data set the test system is S. pneumoniae (Sp). Put plainly: microbe, parasite or virus in culture. It is filed as cell-based. The settings on record: Streptococcus pneumoniae.
A further data set relates to M. catarrhalis (Mc). In words: microbe, parasite or virus in culture. Format: cell-based. Particulars: Moraxella catarrhalis.
The subject of data set [1] is S. pneumoniae.
Data set [2] has as its system beta1-integrin in human tendon cells.
Another data set has as its system H. influenzae. Put plainly: microbe, parasite or virus in culture. Format: cell-based.
Data set [3] concerns S. pneumoniae. In words: microbe, parasite or virus in culture. It is filed as cell-based. The settings on record: for susceptible (%): DIN breakpoints.
For data set [4], the system named is viridans group streptococci. In words: organism not typed. It is filed as cell-based.
Data set [5] concerns M. catarrhalis. Put plainly: microbe, parasite or virus in culture. It is filed as cell-based. Particulars: Moraxella catarrhalis.
In data set [6] the test system is S. pneumoniae with reduced susceptibility to ciprofloxacin. Put plainly: microbe, parasite or virus in culture. It is filed as cell-based.
For data set [7], the system named is viridans Streptococci (S. mitis, S. oralis). It is filed as cell-based. The settings on record: susceptible strains, salivary concentrations.
Data set [8] deals with M. catarrhalis. Put plainly: microbe, parasite or virus in culture. It is filed as cell-based.
The next data set relates to invasive GAS isolates. Format: cell-based, S. pyogenes.
Data set [9] is classed as in vivo, human. Particulars: after 6 months.

Values after ≈ are worked out from the molar mass of the structure shown. Where two headings read alike, the source gives them in different places.

Regarding `CC1(C)S[C@@H]2[C@H](NC(=O)[C@H](N)c3ccccc3)C(=O)N2[C@H]1C(=O)O` [ampicillin], the “susceptibility of all strains” value in the data set on group B streptococci was “susceptible”. Moreover, the figures for the MIC50 against H. influenzae (Hi) and against M. catarrhalis (Mc) were 0.5 µg/mL (≈ 1.43 µM) and 1 µg/mL (≈ 2.86 µM), respectively. Moreover, the MIC90 against S. pneumoniae (Sp) amounted to 0.25 µg/mL (≈ 0.715 µM); with M. catarrhalis (Mc) it was 4 µg/mL (≈ 11.4 µM).
In the case of `CO/N=C(\C(=O)N[C@@H]1C(=O)N2C(C(=O)O)=C(COC(C)=O)CS[C@H]12)c1csc(N)n1` [cefotaxime], the “%I” value is 3.8% in the data set on S. pneumoniae [1] (2002 (n = 103)), 4.4% with S. pneumoniae [1] (2003 (n = 137)) and 3.8% in the data set on S. pneumoniae [1] (2004 (n = 110)). In addition, the “%R” value in the data set on S. pneumoniae [1] (2002 (n = 103)) is listed as 1%; in the data set on S. pneumoniae [1] (2003 (n = 137)) it was 0.6%; in the data set on S. pneumoniae [1] (2004 (n = 110)), 0%. Moreover, the “%S” value in the data set with S. pneumoniae [1] (2002 (n = 103)) is reported as 95.2%; in the data set with S. pneumoniae [1] (2003 (n = 137)), 95%; in the data set on S. pneumoniae [1] (2004 (n = 110)), 96.2%.
Take `CO/N=C(\C(=O)N[C@@H]1C(=O)N2C(C(=O)O)=C(CSc3nc(=O)c(=O)[nH]n3C)CS[C@H]12)c1csc(N)n1` [ceftriaxone]: the MIC90 turned out to be 0.03 µg/mL (≈ 0.0541 µM) against H. influenzae (Hi), 0.25 µg/mL (≈ 0.451 µM) against S. pneumoniae (Sp) and 1 µg/mL (≈ 1.8 µM) in the data set on M. catarrhalis (Mc). Also, the MIC50 worked out at 0.03 µg/mL (≈ 0.0541 µM) in the data set with S. pneumoniae (Sp) and 0.5 µg/mL (≈ 0.902 µM) with M. catarrhalis (Mc).
`CO/N=C(\C(=O)N[C@@H]1C(=O)N2C(C(=O)O)=C(COC(N)=O)CS[C@H]12)c1ccco1` [cefuroxime]: the MIC50 against H. influenzae (Hi) and in the data set with M. catarrhalis (Mc) was 1 µg/mL (≈ 2.36 µM) throughout. Moreover, in the data set on S. pneumoniae (Sp), the MIC90 was determined as 1 µg/mL (≈ 2.36 µM).
Take `O=C(O)c1cn(C2CC2)c2cc(N3CCNCC3)c(F)cc2c1=O` [ciprofloxacin]: in the data set on S. pneumoniae (Sp), the MIC50 came out at 1 µg/mL (≈ 3.02 µM) and the MIC90 amounted to 2 µg/mL (≈ 6.04 µM). Further, in the data set on M. catarrhalis (Mc), the MIC50 was determined as 0.06 µg/mL (≈ 0.181 µM) and the MIC90 is 0.06 µg/mL (≈ 0.181 µM). In addition, in data set [2], the “amount of beta1-integrin vs untreated control” value was “significant decrease”.
As for `CC[C@H]1OC(=O)[C@H](C)[C@@H](O[C@H]2C[C@@](C)(OC)[C@@H](O)[C@H](C)O2)[C@H](C)[C@@H](O[C@@H]2O[C@H](C)C[C@H](N(C)C)[C@H]2O)[C@](C)(OC)C[C@@H](C)C(=O)[C@H](C)[C@@H](O)[C@]1(C)O` [clarithromycin], the “susceptible (%)” value is on record as 4.5% with H. influenzae and 85.7% in the data set on S. pneumoniae [3]. The “%I” value amounted to 0% with S. pneumoniae [1] (2002 (n = 103)), 0% in the data set on S. pneumoniae [1] (2003 (n = 137)) and 1% in the data set with S. pneumoniae [1] (2004 (n = 110)). Further, the “%S” value in the data set with S. pneumoniae [1] (2002 (n = 103)) is 58.8%; with S. pneumoniae [1] (2003 (n = 137)), 61.3%; in the data set on S. pneumoniae [1] (2004 (n = 110)), 64.5%. In addition, the “%R” value is recorded as 38.7% with S. pneumoniae [1] (2003 (n = 137)) and 34.5% in the data set with S. pneumoniae [1] (2004 (n = 110)).
In the case of `C[C@H]1c2cccc(O)c2C(=O)C2=C(O)[C@]3(O)C(=O)C(C(N)=O)=C(O)[C@@H](N(C)C)[C@@H]3[C@@H](O)[C@@H]21` [doxycycline], the values for the MIC90 in the data set with S. pneumoniae (Sp) and in the data set with M. catarrhalis (Mc) were 8 µg/mL (≈ 18 µM) and 0.25 µg/mL (≈ 0.563 µM), respectively.
In data set [4] (S. sanguis mef(A)), `CC[C@H]1OC(=O)[C@H](C)[C@@H](O[C@H]2C[C@@](C)(OC)[C@@H](O)[C@H](C)O2)[C@H](C)[C@@H](O[C@@H]2O[C@H](C)C[C@H](N(C)C)[C@H]2O)[C@](C)(O)C[C@@H](C)C(=O)[C@H](C)[C@@H](O)[C@]1(C)O` [erythromycin] registered an MIC of 4 µg/mL (≈ 5.45 µM). Further, in the data set with S. pneumoniae [1] (2002 (n = 103)), the “%I” value stood at 0%, the “%R” value is on record as 43.1% and the “%S” value was determined as 56.9%. In the data set on S. pneumoniae [1] (2003 (n = 137)), the “%I” value stood at 1.4%, the “%R” value stood at 38.8% and the “%S” value stood at 59.8%. In the data set on S. pneumoniae [1] (2004 (n = 110)), the “%I” value is recorded as 0%, the “%R” value stood at 35.5% and the “%S” value was determined as 64.5%.
Compound `CO/N=C1\CN(c2nc3c(cc2F)c(=O)c(C(=O)O)cn3C2CC2)CC1CN` (stereo not drawn) [gemifloxacin] displayed an MIC50 against M. catarrhalis [5] of at most 0.12 µg/mL.
Consider `C[C@H]1COc2c(N3CCN(C)CC3)c(F)cc3c(=O)c(C(=O)O)cn1c23` [levofloxacin], for which, in the data set on group B streptococci, the “susceptibility of all strains” value was “susceptible”. In addition, the MIC50 was 0.5 µg/mL (≈ 1.38 µM) in [6] (Streptococcus pneumoniae); 0.03 µg/mL (≈ 0.083 µM) against H. influenzae (Hi); 1 µg/mL (≈ 2.77 µM) against S. pneumoniae (Sp); 0.03 µg/mL (≈ 0.083 µM) in the data set on M. catarrhalis (Mc); at most 0.03 µg/mL against M. catarrhalis [5]. Moreover, the MIC90 came to 1 µg/mL (≈ 2.77 µM) in data set [6] (Streptococcus pneumoniae); 8 in data set [6] (ciprofloxacin MIC ≥8 mg/L); 0.03 µg/mL (≈ 0.083 µM) against H. influenzae (Hi); 1 µg/mL (≈ 2.77 µM) with S. pneumoniae (Sp); 0.06 µg/mL (≈ 0.166 µM) with M. catarrhalis (Mc); 1 µg/mL (≈ 2.77 µM) against S. pneumoniae [3] (n = 426). In addition, the “%I” value in the data set with S. pneumoniae [1] (2002 (n = 103)) is listed as 3%; in the data set with S. pneumoniae [1] (2003 (n = 137)), 0.7%; in the data set on S. pneumoniae [1] (2004 (n = 110)), 0%. For the same compound, the “%R” value came to 1% in the data set with S. pneumoniae [1] (2002 (n = 103)), 1.5% in the data set on S. pneumoniae [1] (2003 (n = 137)) and 0% with S. pneumoniae [1] (2004 (n = 110)). Moreover, the “%S” value in the data set on S. pneumoniae [1] (2002 (n = 103)) was found to be 96%; in the data set with S. pneumoniae [1] (2003 (n = 137)), 97.8%; with S. pneumoniae [1] (2004 (n = 110)) it was 100%. In [7], the time to eradication is 12 to 24 h. Moreover, the MIC in the data set on M. catarrhalis [5] (read-out: MIC 10» (second value)) worked out at 1 µg/mL (≈ 2.77 µM). Besides, the “amount of beta1-integrin vs untreated control” value in [2] (3 mg/l, 1-4 days) was “no effect”.
In the case of `CC(=O)NC[C@H]1CN(c2ccc(N3CCOCC3)c(F)c2)C(=O)O1` [linezolid], the MIC in [4] worked out at 0.5 µg/mL (≈ 1.48 µM). Also, in the data set with S. pneumoniae [1], the “%I” value was determined as 0%, the “%R” value is recorded as 0% and the “%S” value came to 100%.
With `CC1(C)S[C@@H]2[C@H](NC(=O)Cc3ccccc3)C(=O)N2[C@H]1C(=O)O` [penicillin], the “susceptible (%)” value in the data set with H. influenzae turned out to be 1.0%; in the data set with M. catarrhalis [8] it was 9.8%; with S. pneumoniae [3] it was 93.3%. In the data set on group B streptococci, the “susceptibility of all strains” value is recorded as “susceptible”. The MIC50 in the data set with H. influenzae (Hi) is 1 µg/mL (≈ 2.99 µM); against S. pneumoniae (Sp), 0.03 µg/mL (≈ 0.0897 µM); against M. catarrhalis (Mc), 64 µg/mL (≈ 191 µM). Moreover, the MIC90 in the data set on H. influenzae (Hi) is 64 µg/mL (≈ 191 µM); against S. pneumoniae (Sp) it was 0.5 µg/mL (≈ 1.5 µM); with M. catarrhalis (Mc), 64 µg/mL (≈ 191 µM). Also, the results for the “%I” value with S. pneumoniae [1] (2002 (n = 103)), in the data set with S. pneumoniae [1] (2003 (n = 137)) and in the data set with S. pneumoniae [1] (2004 (n = 110)) were 31.1%, 55.5% and 30%, respectively. Further, the “%R” value is recorded as 22.3% in the data set with S. pneumoniae [1] (2002 (n = 103)), 5% in the data set with S. pneumoniae [1] (2003 (n = 137)) and 11% with S. pneumoniae [1] (2004 (n = 110)). In addition, the “%S” value in the data set with S. pneumoniae [1] (2002 (n = 103)) came to 46.6%; in the data set with S. pneumoniae [1] (2003 (n = 137)), 39.5%; with S. pneumoniae [1] (2004 (n = 110)), 59%.
In the data set on invasive GAS isolates, `CN(C)[C@@H]1C(O)=C(C(N)=O)C(=O)[C@@]2(O)C(O)=C3C(=O)c4c(O)cccc4[C@@](C)(O)[C@H]3C[C@@H]12` [tetracycline] came in with a resistant isolates of 50%. Besides, in data set [9], the “mean per cent reduction, inflammatory lesions” value amounted to 56% and the “mean per cent reduction, non-inflammatory lesions” value worked out at 45%.
Regarding `CN[C@H](CC(C)C)C(=O)N[C@H]1C(=O)N[C@@H](CC(N)=O)C(=O)N[C@H]2C(=O)N[C@H]3C(=O)N[C@H](C(=O)N[C@H](C(=O)O)c4cc(O)cc(O)c4-c4cc3ccc4O)[C@H](O)c3ccc(c(Cl)c3)Oc3cc2cc(c3O[C@@H]2O[C@H](CO)[C@@H](O)[C@H](O)[C@H]2O[C@H]2C[C@](C)(N)[C@H](O)[C@H](C)O2)Oc2ccc(cc2Cl)[C@H]1O` [vancomycin], the “susceptibility of all strains” value with group B streptococci is listed as “susceptible”. In addition, in the data set on S. pneumoniae [1], the “%I” value stood at 0%, the “%R” value turned out to be 0% and the “%S” value worked out at 100%.
For the compound Quinupristin-Dalfopristin, in the data set with S. pneumoniae [1] (2002 (n = 103)), the “%I” value is given as 5.8%, the “%R” value came out at 0% and the “%S” value is listed as 94.2%. Also, in the data set on S. pneumoniae [1] (2003 (n = 137)), the “%I” value is recorded as 0%, the “%R” value is 0% and the “%S” value worked out at 100%. Also, in the data set on S. pneumoniae [1] (2004 (n = 110)), the “%I” value came out at 1%, the “%R” value is listed as 0% and the “%S” value is 99%.
As for amoxicillin/clavulanate, the “susceptible (%)” value is reported as 87.9% with H. influenzae and 99.1% in the data set on M. catarrhalis [8].
Turning to quinupristin/dalfopristin, in the data set with group B streptococci, the “susceptibility of all strains” value is listed as “susceptible”.
Consider teicoplanin, for which the “susceptibility of all strains” value with group B streptococci is reported as “susceptible”.

For the origin of these results see publication PMC7129916 (Clinical Microbiology and Infection, 2015).
